# Source: patent US4882313A, “Carboxamide derivatives of glycopeptides” (SmithKline Beckman Corporation, priority 1987, dated 1989)
# Columns and labels:
# Staphylococcus aureus = test: standard microtiter assay, minimum inhibitory concentration; format: cell-based; conditions: for minimum inhibitory concentration of antibiotic, Test Organism 1: Test Organism 1, strain of Staphylococcus aureus; for minimum inhibitory concentration of antibiotic, Test Organism 2: Test Organism 2, strain of Staphylococcus aureus; for minimum inhibitory concentration of antibiotic, Test Organism 3: Test Organism 3, strain of Staphylococcus aureus; for minimum inhibitory concentration of antibiotic, Test Organism 4: Test Organism 4, strain of Staphylococcus aureus; for minimum inhibitory concentration of antibiotic, Test Organism 5: Test Organism 5, strain of Staphylococcus aureus
# Excerpt: (§1) Representative results of standard microtiter assays are reported in Table 1 which follows, as the minimum inhibitory concentration of antibiotic (mg/ml). In Table 1, test organisms 1-5 were different strains of Staphylococcus aureus; 6, 8, 11, 13 and 14 were different strains of Staphylococcus epidermidis; 7 was a Staphylococcus haemolyticus; 9 and 10 were different strains of Streptococcus faecalis; and 12 was a Staphylococcus saprophyticus.
# [1] = system: Staphylococcus haemolyticus; test: as above; format: cell-based; conditions: Test Organism 7, Staphylococcus haemolyticus
# Excerpt: as §1
# [2] = system: Staphylococcus saprophyticus; test: as above; format: cell-based; conditions: Test Organism 12, Staphylococcus saprophyticus
# Excerpt: as §1
# Streptococcus faecalis = test: as above; format: cell-based; conditions: for minimum inhibitory concentration of antibiotic, Test Organism 9: Test Organism 9, strain of Streptococcus faecalis; for minimum inhibitory concentration of antibiotic, Test Organism 10: Test Organism 10, strain of Streptococcus faecalis
# Excerpt: as §1
# [3] = system: Staphylococcus epidermidis; test: as above; format: cell-based; set-up: minimum inhibitory concentration of antibiotic, Test Organism 8: unit not given here; conditions: for minimum inhibitory concentration of antibiotic, Test Organism 6: Test Organism 6, strain of Staphylococcus epidermidis; for minimum inhibitory concentration of antibiotic, Test Organism 8: Test Organism 8, strain of Staphylococcus epidermidis; for minimum inhibitory concentration of antibiotic, Test Organism 11: Test Organism 11, strain of Staphylococcus epidermidis; for minimum inhibitory concentration of antibiotic, Test Organism 13: Test Organism 13, strain of Staphylococcus epidermidis; for minimum inhibitory concentration of antibiotic, Test Organism 14: Test Organism 14, strain of Staphylococcus epidermidis
# Excerpt: as §1
# [4] = pI (analytical data, Table 2); format: physicochemical
# Excerpt: Using substantially the procedures of both Examples 1 and 2, the compounds of Examples 3-15 were obtained by using the appropriate glycopeptide and amine starting materials.
Molecule,"minimum inhibitory concentration of antibiotic, Test Organism 1 (Staphylococcus aureus) [µg/mL]","minimum inhibitory concentration of antibiotic, Test Organism 2 (Staphylococcus aureus) [µg/mL]","minimum inhibitory concentration of antibiotic, Test Organism 3 (Staphylococcus aureus) [µg/mL]","minimum inhibitory concentration of antibiotic, Test Organism 4 (Staphylococcus aureus) [µg/mL]","minimum inhibitory concentration of antibiotic, Test Organism 5 (Staphylococcus aureus) [µg/mL]","minimum inhibitory concentration of antibiotic, Test Organism 7 [1] [µg/mL]","minimum inhibitory concentration of antibiotic, Test Organism 12 [2] [µg/mL]","minimum inhibitory concentration of antibiotic, Test Organism 9 (Streptococcus faecalis) [µg/mL]","minimum inhibitory concentration of antibiotic, Test Organism 10 (Streptococcus faecalis) [µg/mL]","minimum inhibitory concentration of antibiotic, Test Organism 6 [3] [µg/mL]","minimum inhibitory concentration of antibiotic, Test Organism 8 [3]","minimum inhibitory concentration of antibiotic, Test Organism 11 [3] [µg/mL]","minimum inhibitory concentration of antibiotic, Test Organism 13 [3] [µg/mL]","minimum inhibitory concentration of antibiotic, Test Organism 14 [3] [µg/mL]",pI [4]
"CNC1C(=O)NC2C(=O)NC(C(=O)NC3C(=O)NC4C(=O)NC(C(=O)NC(C(=O)O)c5cc(O)cc(O)c5-c5cc4ccc5O)C(O)c4cc(Cl)c(c(Cl)c4)Oc4cc3cc(c4O)Oc3ccc(cc3Cl)C2O)c2cc(cc(O)c2Cl)Oc2cc1ccc2O (stereo not drawn) [Compound 2a, Ardacin aglycone, reference compound]",800,800,400,400,800,6300,1600,800,800,800,3.1,1600,1800,800,
"CNC1C(=O)NC2C(=O)NC(C(=O)NC3C(=O)NC4C(=O)NC(C(=O)NC(C(=O)O)c5cc(O)cc(OC6OC(CO)C(O)C(O)C6O)c5-c5cc4ccc5O)C(O)c4cc(Cl)c(c(Cl)c4)Oc4cc3cc(c4O)Oc3ccc(cc3Cl)C2O)c2cc(cc(O)c2Cl)Oc2cc1ccc2O (stereo not drawn) [Compound 2b, Ardacin mannosylaglycone, reference compound]",1600,1600,800,> 1600,1600,25000,3100,800,800,12500,6.3,25000,6300,,
"CNC1C(=O)NC2C(=O)NC(C(=O)NC3C(=O)NC4C(=O)NC(C(=O)NC(C(N)=O)c5cc(O)cc(O)c5-c5cc4ccc5O)C(O)c4cc(Cl)c(c(Cl)c4)Oc4cc3cc(c4O)Oc3ccc(cc3Cl)C2O)c2cc(cc(O)c2Cl)Oc2cc1ccc2O (stereo not drawn) [Compound 2c, Ardacin aglycone amide]",200,200,400,400,200,800,200,200,400,400,0.4,400,400,200,7.1
"CNC1C(=O)NC2C(=O)NC(C(=O)NC3C(=O)NC4C(=O)NC(C(=O)NC(C(=O)NCCN)c5cc(O)cc(O)c5-c5cc4ccc5O)C(O)c4cc(Cl)c(c(Cl)c4)Oc4cc3cc(c4O)Oc3ccc(cc3Cl)C2O)c2cc(cc(O)c2Cl)Oc2cc1ccc2O (stereo not drawn) [Compound 2e, Ardacin aglycone-(2-aminoethyl amide)]",50,50,50,200,50,50,50,50,100,100,0.1,100,50,50,
"CNC1C(=O)NC2C(=O)NC(C(=O)NC3C(=O)NC4C(=O)NC(C(=O)NC(C(=O)O)c5cc(O)cc(OC6OC(CO)C(O)C(O)C6O)c5-c5cc4ccc5O)C(O)c4ccc(c(Cl)c4)Oc4cc3cc(c4OC3OC(C(=O)O)C(O)C(O)C3NC(=O)CCCCCCCCC(C)C)Oc3ccc(cc3)C2O)c2cc(cc(O)c2Cl)Oc2cc1ccc2O (stereo not drawn) [Compound 2p, AAJ-271 C1, reference compound]",400,400,200,800,400,6300,1600,6300,6300,6300,25,25000,6300,6300,
"CN[C@H](CC(C)C)C(=O)N[C@H]1C(=O)N[C@@H](CC(N)=O)C(=O)N[C@H]2C(=O)N[C@H]3C(=O)N[C@H](C(=O)N[C@H](C(=O)O)c4cc(O)cc(O)c4-c4cc3ccc4O)[C@H](O)c3ccc(c(Cl)c3)Oc3cc2cc(c3O[C@@H]2O[C@H](CO)[C@@H](O)[C@H](O)[C@H]2O[C@H]2C[C@](C)(N)[C@H](O)[C@H](C)O2)Oc2ccc(cc2Cl)[C@H]1O [Vancomycin, reference compound]",3100,1600,1600,> 3100,1600,3100,3100,3100,3100,3100,,3100,3100,3100,
"AAJ-271 C2 [Compound 2r, reference compound]",800,800,200,1600,800,12500,1600,200,200,25000,12.5,25000,6300,3100,
"Ardacin A [Compound 2i, reference compound]",6300,3100,800,> 6300,3100,25000,12500,800,800,50000,25,25000,6300,5100,
